According to PubChem BioAssay AID1996:
≈ marks a conversion by molar mass, not a printed value.

Details: buffer; pH 7.4; 200.0 µM

Row | SMILES | solubility kinetic [µg/mL]
1 | CCc1ccc(C(=O)Nc2cc(S(=O)(=O)N3CCOCC3)ccc2N2CCOCC2)cc1 | 2.5 (≈ 5.44 µM)
2 | O=C1CN(S(=O)(=O)c2ccccc2C(F)(F)F)CCN1 | 40.3 (≈ 131 µM)
3 | CCN(Cc1ccncc1)C(=O)C(CO)c1ccccc1 (stereo not given) | > 42.7
4 | Cc1cccc(C(=O)NCC(=O)OCC(=O)NC2CCCCC2)c1 | > 49.9
5 | CC(NC(=S)NC(=O)c1cccs1)c1ccccc1 (stereo not given) | 8.2 (≈ 28.2 µM)
6 | COc1ccc(/C=C/C(=O)O)cc1S(=O)(=O)NCc1ccco1 | 48.8 (≈ 145 µM)
7 | Cc1cc(=O)[nH]c(SCC(=O)N2CCCCC2)n1 | > 40.1
8 | CCCc1nnc(SCC(=O)NC2CC2)n1CC | > 40.3
9 | O=C(NC12CC3CC(CC(C3)C1)C2)c1cncc(Br)c1 | 8.5 (≈ 25.4 µM)
10 | Cc1c(NC(=O)c2ccc(S(=O)(=O)Nc3ccccc3F)cc2)c(=O)n(-c2ccccc2)n1C | > 72.1
11 | O=C(Nc1ccc2c(c1)C(=O)OC2)c1ccc(Cl)cc1Cl | 3 (≈ 9.31 µM)
12 | Cc1ccc(NC(=O)C2=CN3CCS(=O)(=O)N=C3C=C2)cc1 | 12.7 (≈ 40 µM)
13 | Cc1cc(Cl)c(S(=O)(=O)N2CCCC2)cc1OCC(N)=O | > 49.9
14 | O=C(COC(=O)c1ccc(Cl)nc1)Nc1ccc2c(c1)OCCO2 | 4.8 (≈ 13.8 µM)
15 | COc1ccc(N2CCN(c3ccc(NC(=O)/C=C\C(=O)O)cc3)CC2)cc1 | > 57.2
16 | COc1ccccc1Nc1nc(Cl)nc(NC(C)(C)C)n1 | 6.5 (≈ 21.1 µM)
17 | COC(=O)c1c(C)oc(C)c1S(=O)(=O)NCC1CC1 | > 43.1
18 | N/C(=N\OC(=O)c1cccc(Br)c1)c1ccccn1 | 3 (≈ 9.37 µM)
19 | CN(Cc1cccs1)C(=O)CSc1nc2ccccc2[nH]1 | 45 (≈ 142 µM)
20 | O=C1NC2(CCCCC2)N(C(=O)c2ccccc2)C2=C1CCCC2 | 8.1 (≈ 25 µM)
21 | Cc1nc2cc(NC(=O)c3ccc(Cl)cc3)ccc2n1C | 1 (≈ 3.34 µM)
22 | CC(CC(=O)O)CC(=O)Nc1cc(C(F)(F)F)cc(C(F)(F)F)c1 (stereo not given) | > 53.6

Row | SMILES | solubility kinetic [µg/mL]
23 | CCN(CC)C1CCS(=O)(=O)C1.Cl (stereo not given) | > 34.2
24 | CCS(=O)(=O)NCCc1csc(-c2ccc(OC)c(OC)c2)n1 | 53.2 (≈ 149 µM)
25 | CC(C)(C)c1cc(NC(=O)Nc2ccc(Cl)cc2Cl)no1 | < 0.2
26 | Oc1ccc(Cl)cc1CNc1cccc2cccnc12 | 0.5 (≈ 1.76 µM)
27 | Cc1ccc(C(=O)CNc2ccc(C)cc2C)cc1 | 2.8 (≈ 11.1 µM)
28 | O=c1cc(-c2ccccc2)nc(Cc2c(Cl)cccc2Cl)[nH]1 | < 0.4
29 | CC1(C)N=c2ccc([N+](=O)[O-])c(N)c2=[N+]1[O-] | 30 (≈ 135 µM)
30 | Cc1ccc(N(C(=O)Nc2ccccc2)C2=NCCC2)cc1 | 4.5 (≈ 15.3 µM)
31 | Cc1ccc(NC(=O)Nc2cnccn2)cc1C | 9.5 (≈ 39.2 µM)
32 | Cc1ccc2c(CN3CCC(C)CC3)cc(=O)oc2c1C | 3.9 (≈ 13.7 µM)
33 | O=C(c1ccccc1F)N1CCN(c2ccccn2)CC1 | > 42.8
34 | O=C(CN1CCOCC1)Nc1ccc2c(c1)CCC2 | > 39.1
35 | CCN(CC)S(=O)(=O)c1ccc(N2CC(C(=O)N3Cc4ccccc4CC3C(N)=O)CC2=O)cc1 (stereo not given) | > 74.8
36 | Cc1cccc(CC(=O)NCCN2CCOCC2)c1 | > 39.4
37 | COCCNC(=O)c1ccc2c(c1)C(=O)c1ccccc1-2 | > 42.2
38 | Nc1ncn([C@@H]2O[C@H](CO)[C@@H](O)[C@H]2O)c(=O)n1 | > 36.6
39 | NS(=O)(=O)c1ccc(CNC(=O)c2ccc3c(c2)OCO3)cc1 | > 50.2
40 | O=C(COc1ccc(Cl)cc1Br)OCC(=O)c1ccc[nH]1 | 6 (≈ 16.1 µM)
41 | COc1ccc(CCNC(=S)NC(=O)c2ccccc2)cc1C | 0.8 (≈ 2.44 µM)
42 | COc1ccc(S(=O)(=O)N2CCCCC2)cc1NC(=O)c1[nH]c(C)c(C(C)=O)c1C | 3.2 (≈ 7.38 µM)
43 | Cc1cc(C)c2cc(C(=O)N(C)C3CCN(C)CC3)[nH]c2c1 | 21 (≈ 70.1 µM)
44 | CSc1ccccc1NC(=O)CN(C)C(=O)COc1cccc2cccnc12 | > 59.3

Row | SMILES | solubility kinetic [µg/mL]
45 | CCOc1ccccc1C(=O)N[C@H](C(=O)OCc1csc(CC(=O)Nc2ccc(C)cc2)n1)C(C)C | 6.9 (≈ 13.5 µM)
46 | N#Cc1ccsc1NC(=O)CN1C(=O)NC2(CCCCC2)C1=O | 47.3 (≈ 142 µM)
47 | O=C(NC(O)C(=O)c1ccc(F)cc1)c1ccc(F)cc1 (stereo not given) | > 43.7
48 | NC(=O)c1c(/N=C/c2cccs2)sc2c1CCCC2 | 18.4 (≈ 63.4 µM)
49 | O=C1C(Cc2ccc(O)cc2)NC(=S)N1Cc1ccccc1 (stereo not given) | > 46.9
50 | COc1ccccc1-n1cc(-c2ccccc2)c2c(=S)nc[nH]c21 | 10.6 (≈ 31.8 µM)
51 | CC(CCc1ccccc1)NC(=O)CSc1cccc[n+]1[O-] (stereo not given) | 40.6 (≈ 128 µM)
52 | CCn1c(SCC#N)nc2cc(S(=O)(=O)N3CCOCC3)ccc21 | > 55
53 | OCCN1CNC(=S)NC1 | 22.8 (≈ 141 µM)
54 | Cc1ccsc1C(=O)OCC(=O)NCCCc1ccccc1 | 6.2 (≈ 19.5 µM)
55 | CCCc1cc(C(=O)Nc2cc(Cl)ccc2O)no1 | 0.6 (≈ 2.14 µM)
56 | Cc1cc(C)cc(NC(=O)c2cccnc2)c1 | > 33.9
57 | Cc1noc(C)c1COc1ccc(C(=O)Nc2ccccc2)cc1 | 0.8 (≈ 2.48 µM)
58 | O=C(Nc1nc(-c2ccc(F)c(F)c2)cs1)Nc1ccc(F)cc1F | < 0.3
59 | O=C(COc1ccccc1Cl)NCCCNC(=O)c1ccccn1 | > 52.2
60 | CCOc1cc(C(=O)Nc2ccc(N3CCOCC3)cc2)cc(Br)c1OC | 2 (≈ 4.59 µM)
61 | O=C(COc1ccc2ccc(=O)oc2c1)Nc1nccs1 | 11.3 (≈ 37.4 µM)
62 | COc1cccc(C2(O)C(=O)Nc3ccccc32)c1 (stereo not given) | > 38.3
63 | CC1CCc2[nH]c3ccc(C(=O)NCCCOC(C)C)cc3c2C1 (stereo not given) | > 49.3
64 | CCOc1ccc(NC(=O)N2CCc3ccccc3C2)cc1 | 3.7 (≈ 12.5 µM)
65 | Cc1ccc(N2CC(C(=O)Nc3cccnc3)CC2=O)cc1Cl (stereo not given) | 45.8 (≈ 139 µM)
66 | O=C(Nc1ccon1)Nc1ccc(Cl)cc1Cl | 1.6 (≈ 5.88 µM)

Row | SMILES | solubility kinetic [µg/mL]
67 | CN(C)C1(CN=Cc2cc(Cl)cc([N+](=O)[O-])c2O)CCCCC1 | > 51
68 | Cc1nc2ccc(NC(=O)Cc3cccc(F)c3)cc2s1 | 11.5 (≈ 38.3 µM)
69 | COc1cc(S(=O)(=O)N2CCCN(C)CC2)ccc1NC(C)=O | > 51.2
70 | Cc1cccc(-n2c(C)nc3ccsc3c2=O)c1 | 35.8 (≈ 140 µM)
71 | Cc1ccccc1C(=O)N1CCC(C(=O)N2CCN(Cc3ccc4c(c3)OCO4)CC2)CC1 | 59.1 (≈ 131 µM)
72 | CC(=O)Nc1cccc(NC(=O)C2C3C=CC(C3)C2C(=O)O)c1 (stereo not given) | > 47.2
73 | Cc1cc(-c2nc3ccccc3[nH]2)ccc1N | > 33.5
74 | Cc1cc(C(=O)N/N=C2\CCCC(=O)C2)c(C)o1 | > 37.2
75 | O=C(c1cc2ccccc2cc1O)N1CCN(c2ccccn2)CC1 | 32.9 (≈ 98.7 µM)
76 | CCn1cnc2cc(NC(=O)c3ccc(C)cc3)ccc21 | > 41.9
77 | Cc1snc(SCc2c(F)cccc2Cl)c1C#N | < 0.3
78 | O=C(O)CC1S/C(=N/N=C/c2ccccn2)NC1=O (stereo not given) | > 41.7
79 | CC(C)(C)c1cc(CCC(=O)N2CCC2)cc(C(C)(C)C)c1O | 42.6 (≈ 134 µM)
80 | O=S1(=O)NC(=NCCOCCO)c2ccccc21 | > 40.5
81 | COc1ccc(CCNC(=O)COC(=O)CCC(=O)c2cccs2)cc1OC | > 60.8
82 | CCC(=O)N1CCN(c2ccc(NC(=O)c3ccc4ccccc4c3)cc2)CC1 | < 0.3
83 | CCc1ccc(NC(=S)Nc2cccc3cnccc23)cc1 | 11.6 (≈ 37.7 µM)
84 | C=C(C)c1cccc(C(C)(C)NC(=O)NCCN(CC)CC)c1 | 44 (≈ 139 µM)
85 | O=C(CSc1cc(Cl)ccc1Cl)NC1CC1 | 37.7 (≈ 137 µM)
